Results on twelve compounds are retold here after PubChem BioAssay (NCI).

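Exposure lasted 48 hours, with cells grown in 96-well plates and compounds tested at five concentrations. Abbreviation: GI50, concentration required for 50% inhibition of growth. TGI: total growth inhibition.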

Among the test systems are OVCAR-5 ovarian; SK-MEL-5 melanoma; SF-539 CNS; HCC-2998 colon; SF-268 CNS; 786-0 renal; EKVX NSCLC; IGROV1 ovarian; SK-MEL-28 melanoma; SR leukemia.
What all share (assay): inhibition of tumour cell growth, NCI panel, 48 h

Turning to `Cc1ccc(N=C2N=C(N3CC(C)OC(C)C3)c3ccccc32)cc1` (stereo not given), the TGI is > 100 µM in the assay with OVCAR-5 ovarian; 48.5 µM in the assay with SK-MEL-5 melanoma; 38.1 µM with SF-539 CNS; 79.5 µM in the assay on HCC-2998 colon; > 100 µM in the assay on SF-268 CNS; > 100 µM with 786-0 renal. Also, the figures for the TGI in the assay with EKVX NSCLC, in the assay with IGROV1 ovarian and with SK-MEL-28 melanoma were > 100 µM, 88.8 µM and 87.2 µM, respectively.
For the compound `Cc1ccc(/C=C/C(=O)c2sc(-n3nc(-c4ccccc4)cc3-c3ccccc3)nc2C)cc1`, the TGI with OVCAR-5 ovarian, in the assay on SK-MEL-5 melanoma, with SF-539 CNS, in the assay on HCC-2998 colon, in the assay on SF-268 CNS and in the assay on 786-0 renal was > 100 µM in each case. The TGI in the assay with EKVX NSCLC, with IGROV1 ovarian and in the assay on SK-MEL-28 melanoma was > 100 µM each time.
In the case of `O=C1C=C2CCCC2C(C(=O)O)(C(=O)O)C1` (stereo not given), the TGI with SK-MEL-5 melanoma, with SF-539 CNS, in the assay on HCC-2998 colon, with SF-268 CNS, in the assay on 786-0 renal and in the assay with EKVX NSCLC was > 100 µM in each case. In addition, the TGI in the assay with IGROV1 ovarian and in the assay on SK-MEL-28 melanoma was > 100 µM in each case.
Turning to `COc1ccc(O)cc1C(O)c1ccccc1` (stereo not given), the TGI in the assay with OVCAR-5 ovarian, in the assay on SK-MEL-5 melanoma, in the assay with SF-539 CNS, in the assay on HCC-2998 colon, in the assay on SF-268 CNS and in the assay on 786-0 renal was > 100 µM in each case. Moreover, the TGI with EKVX NSCLC, with IGROV1 ovarian and in the assay on SK-MEL-28 melanoma was > 100 µM throughout.
Take `O=C(N/C(=C\c1ccccc1O)c1nc2ccccc2[nH]1)c1ccccc1`: the TGI in the assay on OVCAR-5 ovarian, in the assay with SK-MEL-5 melanoma, with SF-539 CNS, with HCC-2998 colon, with SF-268 CNS and with 786-0 renal was > 100 µM throughout. The TGI in the assay with EKVX NSCLC, in the assay with IGROV1 ovarian and with SK-MEL-28 melanoma was > 100 µM each time.
As for `CCN(CC)CCN1c2nc3ccccc3cc2Sc2cc3ccccc3nc21`, the GI50 in the assay with OVCAR-5 ovarian was 1.65 µM; with SK-MEL-5 melanoma it was 1.36 µM; in the assay on SF-539 CNS it was 1.6 µM; in the assay with HCC-2998 colon, 1.69 µM; in the assay on SF-268 CNS, 3.34 µM; with 786-0 renal, 2.17 µM. Moreover, the GI50 in the assay on EKVX NSCLC is 4.49 µM; in the assay with IGROV1 ovarian it was 0.473 µM; in the assay with SK-MEL-28 melanoma it was 1.8 µM. In addition, the TGI is 4.55 µM in the assay on OVCAR-5 ovarian; 2.69 µM in the assay on SK-MEL-5 melanoma; 3.16 µM with SF-539 CNS; 3.72 µM in the assay with HCC-2998 colon; 13 µM in the assay with SF-268 CNS; 4.64 µM in the assay with 786-0 renal. Moreover, the TGI stood at 17.9 µM with EKVX NSCLC, 2.48 µM in the assay with IGROV1 ovarian and 3.49 µM with SK-MEL-28 melanoma.
As for `COc1ccc(-c2cn(-c3ccc(OC)c(OC)c3)c(=O)[nH]2)cc1`, the GI50 with OVCAR-5 ovarian was > 100 µM; with SK-MEL-5 melanoma, 63.3 µM; in the assay with SF-539 CNS, > 100 µM; in the assay on HCC-2998 colon, > 100 µM; in the assay with SF-268 CNS, > 100 µM; in the assay on 786-0 renal, > 100 µM. Besides, the GI50 in the assay on EKVX NSCLC, with IGROV1 ovarian and in the assay with SK-MEL-28 melanoma was > 100 µM each time. Also, the TGI in the assay with OVCAR-5 ovarian, in the assay with SK-MEL-5 melanoma, in the assay on SF-539 CNS, in the assay with HCC-2998 colon, in the assay on SF-268 CNS and in the assay on 786-0 renal was > 100 µM throughout. Moreover, the TGI in the assay with EKVX NSCLC, in the assay on IGROV1 ovarian and in the assay with SK-MEL-28 melanoma was > 100 µM each time.
On to `N#C/C(=C1\OC(=N)C(c2ccccc2)C1=O)c1ccccc1` (stereo not given), for which the TGI in the assay on OVCAR-5 ovarian was > 100 µM; with SK-MEL-5 melanoma, > 64.2 µM; in the assay on SF-539 CNS, > 31.6 µM; in the assay on HCC-2998 colon it was > 100 µM; with SF-268 CNS it was > 100 µM; in the assay with 786-0 renal it was > 56.8 µM. Moreover, the TGI is > 73.2 µM in the assay on EKVX NSCLC, > 80.7 µM in the assay on IGROV1 ovarian and 20.2 µM in the assay with SK-MEL-28 melanoma.
On to `COC1C=COC2(C)Oc3c(C)c(O)c4c(O)c(c(C5SCCS5)c(O)c4c3C2=O)NC(=O)/C(C)=C\C=CC(C)C(O)C(C)C(O)C(C)C(OC(C)=O)C1C` (stereo not given), for which the TGI with OVCAR-5 ovarian is 27.8 µM; in the assay on SK-MEL-5 melanoma, 20.8 µM; in the assay on SF-539 CNS, 20.9 µM; in the assay on SF-268 CNS it was 32 µM; with 786-0 renal it was 48.4 µM; with SR leukemia, 7.14 µM. The values for the TGI in the assay on IGROV1 ovarian and in the assay with SK-MEL-28 melanoma were 22.4 µM and 20.8 µM, respectively.
`CCCCOc1ccc(/C=N/Nc2cc(C)nc3ccc(Br)cc23)cc1`: the GI50 in the assay with OVCAR-5 ovarian was 1.86 µM; with SK-MEL-5 melanoma, 1.68 µM; with SF-539 CNS it was 1.84 µM; in the assay with HCC-2998 colon, 2.12 µM; in the assay on 786-0 renal it was 1.83 µM; in the assay with EKVX NSCLC, 1.63 µM. Also, the GI50 with IGROV1 ovarian is 1.91 µM; with SK-MEL-28 melanoma it was 1.72 µM. Further, the TGI in the assay on OVCAR-5 ovarian amounted to 3.25 µM; in the assay with SK-MEL-5 melanoma it was 3.05 µM; with SF-539 CNS, 3.29 µM; with HCC-2998 colon, 3.73 µM; in the assay on 786-0 renal, 3.37 µM; with EKVX NSCLC, 3.03 µM. The figures for the TGI with IGROV1 ovarian and in the assay on SK-MEL-28 melanoma were 3.59 µM and 3.13 µM, respectively.
For the compound `O=C(CCC(=O)Nc1cccc(C(F)(F)F)c1)CC(=O)c1ccc2ccccc2c1`, the TGI in the assay with OVCAR-5 ovarian, in the assay with SK-MEL-5 melanoma, with SF-539 CNS, in the assay on HCC-2998 colon, in the assay with SF-268 CNS and with 786-0 renal was > 100 µM throughout. Further, the TGI in the assay on EKVX NSCLC and in the assay on IGROV1 ovarian was > 100 µM in each case.
In the case of `CCc1cc2c(O)c(c1)Cc1cc(CC)cc(c1O)Cc1cc(CC)cc(c1O)Cc1cc(CC)cc(c1O)Cc1cc(CC)cc(c1O)Cc1cc(CC)cc(c1O)Cc1cc(CC)cc(c1O)C2`, the TGI with OVCAR-5 ovarian, in the assay with SK-MEL-5 melanoma, with SF-539 CNS, in the assay with HCC-2998 colon, in the assay with SF-268 CNS and in the assay with 786-0 renal was > 100 µM throughout. Also, the TGI with EKVX NSCLC, in the assay on IGROV1 ovarian and in the assay with SK-MEL-28 melanoma was > 100 µM each time.
